Source: US10711004B2 (Genentech, Inc., priority 2018, dated 2020)
Read-outs that look alike come from different tables or passages of the source.

Target: human TRPA1 channel (Homo sapiens (Human), UniProt O75762)
Assay: hTRPA1 CHO Ca2+ FLIPR Tetra assay, block of cinnamaldehyde induced calcium influx
Assay type: cell-based
Details: for IC50: CHO cells expressing TRPA1, Hill coefficient fixed to 1.5
Procedure, shortened: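 Calcium-dye-loaded TRPA1-expressing CHO cells in HBSS/20 mM HEPES pH 7.4, 0.02% BSA were preincubated with compound for 10 or 90 min at room temperature. Calcium influx evoked by roughly an EC50 concentration of cinnamaldehyde was then read on FLIPR Tetra; IC50 came from curve fits with a fixed Hill coefficient.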

[1] = read-out: hTRPA1 IC50 (10 min), compounds incubated 10 minutes at room temperature before cinnamaldehyde agonist
[2] = read-out: hTRPA1 IC50 (90 min), compounds incubated 90 minutes at room temperature before cinnamaldehyde agonist

human TRPA1 channel, sequence (O75762 whole entry): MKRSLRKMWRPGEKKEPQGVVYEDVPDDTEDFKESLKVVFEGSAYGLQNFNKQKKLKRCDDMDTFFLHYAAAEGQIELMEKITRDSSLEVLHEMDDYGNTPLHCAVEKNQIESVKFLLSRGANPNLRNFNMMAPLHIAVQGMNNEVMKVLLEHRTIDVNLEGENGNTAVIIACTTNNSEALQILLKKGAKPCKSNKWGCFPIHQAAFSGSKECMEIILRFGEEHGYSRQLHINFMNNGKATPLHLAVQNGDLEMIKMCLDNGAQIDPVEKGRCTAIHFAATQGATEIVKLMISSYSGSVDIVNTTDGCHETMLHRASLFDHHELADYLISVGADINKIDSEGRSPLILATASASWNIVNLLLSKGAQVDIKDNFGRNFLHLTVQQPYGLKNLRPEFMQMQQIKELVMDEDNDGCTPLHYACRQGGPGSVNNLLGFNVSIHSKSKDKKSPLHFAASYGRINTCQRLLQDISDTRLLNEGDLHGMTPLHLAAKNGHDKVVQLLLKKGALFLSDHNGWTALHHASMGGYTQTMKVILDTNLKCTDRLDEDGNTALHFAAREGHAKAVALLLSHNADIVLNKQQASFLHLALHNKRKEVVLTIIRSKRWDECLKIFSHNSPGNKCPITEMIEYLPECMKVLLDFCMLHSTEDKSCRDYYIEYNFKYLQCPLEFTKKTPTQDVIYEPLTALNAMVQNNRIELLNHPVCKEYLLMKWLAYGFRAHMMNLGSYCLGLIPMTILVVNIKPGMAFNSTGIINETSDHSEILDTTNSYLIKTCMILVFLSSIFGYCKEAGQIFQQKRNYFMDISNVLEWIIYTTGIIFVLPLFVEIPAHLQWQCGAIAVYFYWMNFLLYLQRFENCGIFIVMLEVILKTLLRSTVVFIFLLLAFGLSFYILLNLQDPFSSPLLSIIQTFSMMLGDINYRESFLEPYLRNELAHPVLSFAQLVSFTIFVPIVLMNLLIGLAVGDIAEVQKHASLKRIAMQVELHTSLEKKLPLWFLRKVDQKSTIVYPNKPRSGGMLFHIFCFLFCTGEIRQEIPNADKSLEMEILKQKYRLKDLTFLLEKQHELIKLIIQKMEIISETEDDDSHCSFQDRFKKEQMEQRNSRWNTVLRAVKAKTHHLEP

| Molecule | IC50 [1] | IC50 [2] | IC50 (compounds incubated 10 minutes at room temperature before cinnamaldehyde agonist) | TRPA1 IC50 compared with 3-azabicyclo[3.1.0]hexene linker and cyclobutylene linker analogues (bicyclo[3.1.0]hexene linker compounds versus same-substituent analogues (compounds 16, 191; 26, 1)) |
| --- | --- | --- | --- | --- |
| Cn1cnc2ncn(Cc3nc([C@@H]4[C@H]5C=C(c6ccc(C(F)F)cc6)C[C@H]54)no3)c(=O)c21 [Example Compound 281, 7-methyl-1-[[3-[(1R,5R,6S)-3-[4-(difluoromethyl)phenyl]-6-bicyclo[3.1.0]hex-2-enyl]-1,2,4-oxadiazol-5-yl]methyl]purin-6-one] | 67.9 nM | 35 nM |  |  |
| Cc1noc2ncn(Cc3nc([C@H]4[C@@H]5CN(c6cc(Cl)ccn6)C[C@@H]54)no3)c(=O)c12 [Example Compound 104, 5-((3-((1R,5S,6r)-3-(4-chloropyridin-2-yl)-3-azabicyclo[3.1.0]hexan-6-yl)-1,2,4-oxadiazol-5-yl)methyl)-3-methylisoxazolo[5,4-d]pyrimidin-4(5H)-one] | 43 nM | 30 nM |  |  |
| Cn1cnc2ncn(Cc3nc([C@H]4C[C@](F)(c5ccc(F)cc5)C4)no3)c(=O)c21 [Example Compound 206, 1-((3-((1s,3s)-3-fluoro-3-(4-fluorophenyl)cyclobutyl)-1,2,4-oxadiazol-5-yl)methyl)-7-methyl-1,7-dihydro-6H-purin-6-one] | 313 nM |  |  |  |
| Cn1cnc2ncn(Cc3nc([C@H]4[C@@H]5CN(c6ccccc6F)C[C@@H]54)no3)c(=O)c21 [Example Compound 97, 1-((3-((1R,5S,6r)-3-(2-fluorophenyl)-3-azabicyclo[3.1.0]hexan-6-yl)-1,2,4-oxadiazol-5-yl)methyl)-7-methyl-1,7-dihydro-6H-purin-6-one] | 48.1 nM | 19 nM |  |  |
| Cn1cnc2ncn(Cc3nc([C@H]4[C@@H]5C=C(c6ccc(Cl)cc6)C[C@@H]54)no3)c(=O)c21 [Example Compound 141, 1-((3-((1S,5S,6R)-3-(4-chlorophenyl)bicyclo[3.1.0]hex-2-en-6-yl)-1,2,4-oxadiazol-5-yl)methyl)-7-methyl-1,7-dihydro-6H-purin-6-one] | 9.78 nM | 5.1 nM |  |  |
| 1-((3-((1R,5S,6r)-3-(3-fluorophenyl)-3-azabicyclo[3.1.0]hexan-6-yl)-1,2,4-oxadiazol-5-yl)methyl)-7-methyl-1,7-dihydro-6H-purin-6-one-2-d [Example Compound 89] | 31.1 nM |  |  |  |
| O=c1c2cccnc2ncn1Cc1nc([C@H]2C[C@](F)(c3ccc(F)cc3)C2)no1 [Example Compound 207, 3-((3-((1s,3s)-3-fluoro-3-(4-fluorophenyl)cyclobutyl)-1,2,4-oxadiazol-5-yl)methyl)pyrido[2,3-d]pyrimidin-4(3H)-one] | 95 nM |  |  |  |
| Cn1cc(-c2cc(Cl)cc(N3C[C@@H]4[C@H](C3)[C@H]4c3noc(Cn4cnc5ncn(C)c5c4=O)n3)c2)cn1 [Example Compound 163, 1-((3-((1R,5S,6r)-3-(3-chloro-5-(1-methyl-1H-pyrazol-4-yl)phenyl)-3-azabicyclo[3.1.0]hexan-6-yl)-1,2,4-oxadidzol-5-yl)methyl)-7-methyl-1,7-dihydro-6H-purin-6-one] | 71.3 nM | 23 nM |  |  |
| Cc1ccnc2ncn(Cc3nc([C@@H]4[C@H]5C=C(c6ccccc6)C[C@H]54)no3)c(=O)c12 [Example Compound 227, 5-methyl-3-((3-((1R,5R,6S)-3-phenylbicyclo[3.1.0]hex-2-en-6-yl)-1,2,4-oxadiazol-5-yl)methyl)pyrido[2,3-d]pyrimidin-4(3H)-one] | 14 nM |  |  |  |
| Cn1cnc2ncn(Cc3nc([C@H]4[C@@H]5CN(c6cccc(-c7ccncc7)c6)C[C@@H]54)no3)c(=O)c21 [Example Compound 201, 7-methyl-1-((3-((1R,5S,6r)-3-(3-(pyridin-4-yl)phenyl)-3-azabicyclo[3.1.0]hexan-6-yl)-1,2,4-oxadiazol-5-yl)methyl)-1,7-dihydro-6H-purin-6-one] | 67 nM | 66 nM |  |  |

More lines, now with the values ahead:

| IC50 [1] | IC50 [2] | IC50 (compounds incubated 10 minutes at room temperature before cinnamaldehyde agonist) | TRPA1 IC50 compared with 3-azabicyclo[3.1.0]hexene linker and cyclobutylene linker analogues (bicyclo[3.1.0]hexene linker compounds versus same-substituent analogues (compounds 16, 191; 26, 1)) | Molecule |
| --- | --- | --- | --- | --- |
| 134 nM | 67 nM |  |  | Cn1cc(-c2ccc(N3C[C@@H]4[C@H](C3)[C@H]4c3noc(Cn4cnc5ncn(C)c5c4=O)n3)cc2)cn1 [Example Compound 179, 7-methyl-1-((3-((1R,5S,6r)-3-(4-(1-methyl-1H-pyrazol-4-yl)phenyl)-3-azabicyclo[3.1.0]hexan-6-yl)-1,2,4-oxadiazol-5-yl)methyl)-1,7-dihydro-6H-purin-6-one] |
|  |  | 119 nM |  | Cc1ccnc2ncn(Cc3nc([C@@H]4[C@H]5Cc6ccccc6[C@H]54)no3)c(=O)c12 (stereo in doubt) [Example Compound 14, 5-methyl-3-[[3-[rac-(1S,1aS,6aR)-1,1a,6,6a-tetrahydrocyclopropa[a]inden-1-yl]-1,2,4-oxadiazol-5-yl]methyl]pyrido[2,3-d]pyrimidin-4-one] |
| 295 nM |  |  |  | CC(=O)c1cccc(N2C[C@@H]3[C@H](C2)[C@H]3c2noc(Cn3cnc4ncn(C)c4c3=O)n2)c1 |
| 531 nM |  |  |  | Cc1ccnc2ncn(Cc3nc(C4Cc5ccccc5C4)no3)c(=O)c12 [Example Compound 27, 3-((3-(2,3-dihydro-1H-inden-2-yl)-1,2,4-oxadiazol-5-yl)methyl)-5-methylpyrido[2,3-d]pyrimidin-4(3H)-one] |
| 8.39 nM | 5.1 nM |  |  | O=c1c2cccnc2cnn1Cc1nc([C@H]2[C@@H]3CN(c4cccc(F)c4)C[C@@H]32)no1 [Example Compound 96, 6-((3-((1R,5S,6r)-3-(3-fluorophenyl)-3-azabicyclo[3.1.0]hexan-6-yl)-1,2,4-oxadiazol-5-yl)methyl)pyrido[2,3-d]pyridazin-5(6H)-one] |
| 58.5 nM | 43 nM |  |  | Cc1nn(C)c2ncn(Cc3nc([C@H]4[C@@H]5CN(c6cc(Cl)ccn6)C[C@@H]54)no3)c(=O)c12 [Example Compound 137, 5-((3-((1R,5S,6r)-3-(4-chloropyridin-2-yl)-3-azabicyclo[3.1.0]hexan-6-yl)-1,2,4-oxadiazol-5-yl)methyl)-1,3-dimethyl-1,5-dihydro-4H-pyrazolo[3,4-d]pyrimidin-4-one] |
| 6.4 nM | 1.7 nM |  | improved TRPA1 IC50 values | Cn1cnc2ncn(Cc3nc([C@H]4[C@@H]5C=C(c6cccc(F)c6)C[C@@H]54)no3)c(=O)c21 [Example Compound 114, 1-((3-((1S,5S,6R)-3-(3-fluorophenyl)bicyclo[3.1.0]hex-2-en-6-yl)-1,2,4-oxadiazol-5-yl)methyl)-7-methyl-1,7-dihydro-6H-purin-6-one] |
| 98.9 nM | 59 nM |  |  | O=c1c2cccnc2cnn1Cc1nc([C@H]2C[C@](F)(c3ccc(Cl)cc3)C2)no1 [Example Compound 157, 6-((3-((1s,3s)-3-(4-chlorophenyl)-3-fluorocyclobutyl)-1,2,4-oxadiazol-5-yl)methyl)pyrido[2,3-d]pyridazin-5(6H)-one] |
| 300 nM |  |  |  | Cn1cnc2ncn(Cc3nc([C@H]4[C@@H]5CN(c6cccc(SC(F)(F)F)c6)C[C@@H]54)no3)c(=O)c21 |
| 105 nM |  |  |  | Cn1cnc2ncn(Cc3nc([C@H]4[C@@H]5CN(c6cccc(OC(F)F)c6)C[C@@H]54)no3)c(=O)c21 [Example Compound 8, 7-methyl-1-[[3-[(1R,5S,6 r)-3-[3-(difluoromethoxy)phenyl]-3-azabicyclo[3.1.0]hexan-6-yl]-1,2,4-oxadiazol-5-yl]methyl] purin-6-one] |
| 95.7 nM | 60 nM |  |  | O=c1c2cccnc2cnn1Cc1nc([C@H]2[C@@H]3CN(c4cc(F)ccn4)C[C@@H]32)no1 [Example Compound 153, 6-((3-((1R,5S,6r)-3-(4-fluoropyridin-2-yl)-3-azabicyclo[3.1.0]hexan-6-yl)-1,2,4-oxadiazol-5-yl)methyl)pyrido[2,3-d]pyridazin-5(6H)-one] |
